# Source: patent US20260274829A1, “NEW E3 UBIQUITIN LIGASE LIGAND, PROTEIN DEGRADATION AGENT AND USE THEREOF” (GLUETACS THERAPEUTICS (SHANGHAI) CO., LTD., priority 2023, published 2026)
# Target: T1, human Cereblon WT GST-tagged protein (Homo sapiens, UniProt Q96SW2)
# T1 construct: purchased CISBIO 64BDCRBNPEH
# Assay: CRBN binding, HTRF CEREBLON BINDING kit
# Conditions: not given
# Experimental: The CEREBLON BINDING kits (specification: 10,000 tests; product number: Catalog #64BDCRBNPEH; CISBIO company) was used to determine the CRBN binding ability of the compounds to be tested through a HTRF method (homogeneous time-resolved fluorescence). The specific methods are as follows: • 1. […] Then, 2.5 μL of human Cereblon WT GST-tagged protein solution was added to each well. Finally, 5 μL of the thoroughly mixed Thalidomide-Re reagent and GST Eu antibody working solution were added to each of the aforementioned wells. […] The blank control wells were sequentially added with 2.5 μL of diluent #9 (1×) solution, 2.5 μL of binding buffer, and 5 μL of thoroughly mixed Thalidomide-Re reagent and GST Eu antibody working solution. • 4. After sealing and incubating the solutions in the aforementioned wells at room temperature for 3 hours, the absorbance values at emission wavelengths of 620 nm and 665 nm were detected by the HTRF method using a Spark microplate reader (V3.1 SP1).
# The corresponding CRBN binding inhibition rate was calculated using the following method:
# [formula] [formula] [formula] • Note: OD 665 nmcompound is the absorbance value of each well of the compounds to be tested of the present disclosure at an emission wavelength of 665 nm. • OD 620 nmcompound is the absorbance value of each well of the compounds to be tested of the present disclosure at an emission wavelength of 620 nm. • OD 665 nmcontrol is the absorbance value of the blank control well at an emission wavelength of 665 nm. • OD 620 nmcontrol is the absorbance value of the blank control well at an emission wavelength of 620 nm. • OD 665 nmStd0 is the absorbance value of the solvent control well at an emission wavelength of 665 nm. • OD 620 nmStd0 is the absorbance value of the solvent control well at an emission wavelength of 620 nm.
# T1 sequence (Q96SW2 whole entry): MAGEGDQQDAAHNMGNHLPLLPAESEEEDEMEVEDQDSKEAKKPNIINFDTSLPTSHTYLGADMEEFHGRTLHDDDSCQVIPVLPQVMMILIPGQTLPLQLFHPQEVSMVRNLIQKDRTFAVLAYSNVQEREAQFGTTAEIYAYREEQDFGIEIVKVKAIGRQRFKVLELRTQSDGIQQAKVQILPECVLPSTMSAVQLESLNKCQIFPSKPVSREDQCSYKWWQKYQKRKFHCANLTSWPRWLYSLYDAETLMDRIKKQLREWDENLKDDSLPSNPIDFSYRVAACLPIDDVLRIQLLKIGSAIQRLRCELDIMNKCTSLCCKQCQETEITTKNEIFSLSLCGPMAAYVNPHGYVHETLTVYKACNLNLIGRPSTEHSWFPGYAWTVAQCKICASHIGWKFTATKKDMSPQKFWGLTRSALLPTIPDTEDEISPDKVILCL
row,Structure (SMILES),IC50
1,"C=CC(=O)Nc1cc(Nc2nccc(-c3cn(C)c4ccccc34)n2)c(OC)cc1N(C)CCN(C)C [osimertinib, reference compound]",> 10000 nM

# Same assay, conditions: CRBN binding, HTRF CEREBLON BINDING kit
row,Structure (SMILES),IC50
1,"CCc1cc2c(cc1N1CCC(N3CCN(Cc4cc(C5CCC(=O)NC5=O)cnc4F)CC3)CC1)C(C)(C)c1[nH]c3cc(C#N)ccc3c1C2=O (stereo not drawn) [GT-07703, 8-(4-(4-((5-(2,6-dioxopiperidin-3-yl)-2-fluoropyridin-3-yl)methyl)piperazin-1-yl)piperidin-1-yl)-9-ethyl-6,6-dimethyl-11-oxo-6,11-dihydro-5H-benzo[b]carbazole-3-carbonitrile]",< 500 nM
2,"Cc1nc2c(F)cc(-c3nc(Nc4ccc(N5CCC(N6CCN(Cc7cccc(NC8CCC(=O)NC8=O)c7)CC6)CC5)cn4)ncc3F)cc2n1C(C)C (stereo not drawn) [GT-06743, 3-((3-((4-(1-(6-((5-fluoro-4-(4-fluoro-1-isopropyl-2-methyl-1H-benzo[d]imidazol-6-yl)pyrimidin-2-yl)amino)pyridin-3-yl)piperidin-4-yl)piperazin-1-yl)methyl)phenyl)amino)piperidine-2,6-dione]",1000 to 1900 nM
3,"O=C1CCC(c2ccc(CN3CCC(N4CCN(c5ccc6c(c5)nc(NC(=O)c5cccc(C(F)(F)F)c5)n6[C@H]5CC[C@@H](CO)CC5)CC4)CC3)cc2)C(=O)N1 (stereo partly drawn) [GT-05020, N-(5-(4-(1-(4-(2,6-dioxopiperidin-3-yl)benzyl)piperidin-4-yl)piperazin-1-yl)-1-((1s,4s)-4-(hydroxymethyl)cyclohexyl)-1H-benzo[d]imidazol-2-yl)-3-(trifluoromethyl)benzamide]",1000 to 1900 nM
4,"CN(C)C(=O)c1cc2cnc(Nc3ccc(N4CCC(N(C)Cc5ccc(N6CCC(=O)NC6=O)cn5)CC4)cn3)nc2n1C1CCCC1 [GT-06493, 7-cyclopentyl-2-((5-(4-(((5-(2,4-dioxotetrahydropyrimidin-1(2H)-yl)pyridin-2-yl)methyl)(methyl)amino)piperidin-1-yl)pyridin-2-yl)amino)-N,N-dimethyl-7H-pyrrolo[2,3-d]pyrimidine-6-carboxamide]",500 to 1000 nM
5,"O=C1CCN(c2ccc(CN3C[C@@H]4C[C@H]3CN4c3ccc(-c4cc(F)c5c(c4)C(=O)N(C(C(=O)Nc4nccs4)c4ncn6c4CCC6)C5)cc3)cc2)C(=O)N1 (stereo partly drawn) [GT-05116, 2-(6,7-dihydro-5H-pyrrolo[1,2-c]imidazol-1-yl)-2-(6-(4-((1S,4S)-5-(4-(2,4-dioxotetrahydropyrimidin-1(2H)-yl)benzyl)-2,5-diazabicyclo[2.2.1]heptan-2-yl)phenyl)-4-fluoro-1-oxoisoindolin-2-yl)-N-(thiazol-2-yl)acetamide]",500 to 1000 nM
6,"COc1cc2nn(C3CCN(Cc4cccc(N5CCC(=O)NC5=O)c4)CC3)cc2cc1NC(=O)c1cccc(C(F)(F)F)c1 [GT-04750, N-(2-(1-(3-(2,4-dioxotetrahydropyrimidin-1(2H)-yl)benzyl)piperidin-4-yl)-6-methoxy-2H-indazol-5-yl)-3-(trifluoromethyl)benzamide]",1000 to 1900 nM
7,"Nc1nnc(-c2cc(F)ccc2O)cc1N1CCN(Cc2ccc(C3CCC(=O)NC3=O)cc2)CC1 (stereo not drawn) [GT-05062, 3-(4-((4-(3-amino-6-(5-fluoro-2-hydroxyphenyl)pyridazin-4-yl)piperazin-1-yl)methyl)phenyl)piperidine-2,6-dione]",500 to 1000 nM
8,"O=C1CCN(c2cccc(CN3CCN(C4CCN(c5ccc(Nc6ncc7nc(Nc8ccccc8)n(C8CCCC8)c7n6)cc5)CC4)CC3)c2)C(=O)N1 [GT-05940, 1-(3-((4-(1-(4-((9-cyclopentyl-8-(phenylamino)-9H-purin-2-yl)amino)phenyl)piperidin-4-yl)piperazin-1-yl)methyl)phenyl)dihydropyrimidine-2,4(1H,3H)-dione]",500 to 1000 nM
9,"COc1cc(N2CCN(Cc3cncc(C4CCC(=O)NC4=O)c3)CC2)ccc1Nc1ncc(Cl)c(Nc2ccccc2P(C)(C)=O)n1 (stereo not drawn) [GT-07714, 3-(5-((4-(4-((5-chloro-4-((2-(dimethylphosphoryl)phenyl)amino)pyrimidin-2-yl)amino)-3-methoxyphenyl)piperazin-1-yl)methyl)pyridin-3-yl)piperidine-2,6-dione]",< 500 nM
10,"O=C1CCC(Nc2cccc(CN3CCN(c4ccc5c(c4)nc(NC(=O)c4cccc(C(F)(F)F)c4)n5[C@H]4CC[C@@H](CO)CC4)CC3)c2)C(=O)N1 (stereo partly drawn) [GT-04985, N-(5-(4-(3-((2,6-dioxopiperidin-3-yl)amino)benzyl)piperazin-1-yl)-1-((1s,4s)-4-(hydroxymethyl)cyclohexyl)-1H-benzo[d]imidazol-2-yl)-3-(trifluoromethyl)benzamide]",500 to 1000 nM
11,"O=C1CCC(Nc2cccc(CN3CCC(n4cc(NC(=O)c5cnn6ccc(N7CCOCC7)nc56)c(C(F)F)n4)CC3)c2)C(=O)N1 (stereo not drawn) [GT-05801, N-(3-(difluoromethyl)-1-(1-(3-((2,6-dioxopiperidin-3-yl)amino)benzyl)piperidin-4-yl)-1H-pyrazol-4-yl)-5-morpholinopyrazolo[1,5-a]pyrimidine-3-carboxamide]",500 to 1000 nM
12,"O=C1CCN(c2ccc(CN3C[C@H]4C[C@@H]3CN4c3ccc(-c4cc(F)c5c(c4)C(=O)N(C(C(=O)Nc4nccs4)c4ncn6c4CCC6)C5)cc3)cc2)C(=O)N1 (stereo partly drawn) [GT-06177, 2-(6,7-dihydro-5H-pyrrolo[1,2-c]imidazol-1-yl)-2-(6-(4-((1R,4R)-5-(4-(2,4-dioxotetrahydropyrimidin-1(2H)-yl)benzyl)-2,5-diazabicyclo[2.2.1]heptan-2-yl)phenyl)-4-fluoro-1-oxoisoindolin-2-yl)-N-(thiazol-2-yl)acetamide]",< 500 nM

# Second part, the molecule after the results:
row,IC50,Structure (SMILES)
1,500 to 1000 nM,"COC1CCN(c2nccc(Nc3cc4c(cn3)c(N3CCC(N(C)Cc5cccc(NC6CCC(=O)NC6=O)c5)CC3)nn4C(C)C)n2)CC1 (stereo not drawn) [GT-06123, 3-((3-(((1-(1-isopropyl-6-((2-(4-methoxypiperidin-1-yl)pyrimidin-4-yl)amino)-1H-pyrazolo[4,3-c]pyridin-3-yl)piperidin-4-yl)(methyl)amino)methyl)phenyl)amino)piperidine-2,6-dione]"
2,1000 to 1900 nM,"Cc1ccc(-c2c(C)noc2C)cc1N(CC1CCN(Cc2cccc(N3CCC(=O)NC3=O)c2)CC1)c1ccc(C2(C#N)CC2)cc1 [GT-04842, 1-(4-((5-(3,5-dimethylisoxazol-4-yl)-2-methylphenyl)((1-(3-(2,4-dioxotetrahydropyrimidin-1(2H)-yl)benzyl)piperidin-4-yl)methyl)amino)phenyl)cyclopropane-1-carbonitrile]"
3,1000 to 1900 nM,"COc1cc(N2CCC(N3CCN(Cc4cccc(N5CCC(=O)NC5=O)c4)CC3)CC2)ccc1Nc1ncc(Cl)c(Nc2ccccc2P(C)(C)=O)n1 [GT-07604, 1-(3-((4-(1-(4-((5-chloro-4-((2-(dimethylphosphoryl)phenyl)amino)pyrimidin-2-yl)amino)-3-methoxyphenyl)piperidin-4-yl)piperazin-1-yl)methyl)phenyl)dihydropyrimidine-2,4(1H,3H)-dione]"
4,500 to 1000 nM,"CC(=O)c1c(C)c2cnc(Nc3ccc(N4CCC(N5CCN(Cc6ccc(C7CCC(=O)NC7=O)cc6)CC5)CC4)cn3)nc2n(C2CCCC2)c1=O (stereo not drawn) [GT-06659, 3-(4-((4-(1-(6-((6-acetyl-8-cyclopentyl-5-methyl-7-oxo-7,8-dihydropyrido[2,3-d]pyrimidin-2-yl)amino)pyridin-3-yl)piperidin-4-yl)piperazin-1-yl)methyl)phenyl)piperidine-2,6-dione]"
5,500 to 1000 nM,"CN(Cc1cccc(N2CCC(=O)NC2=O)c1)C1CCN(c2ccc(Nc3ncc4nc(Nc5ccccc5)n(C5CCCC5)c4n3)cc2)CC1 [GT-05870, 1-(3-(((1-(4-((9-cyclopentyl-8-(phenylamino)-9H-purin-2-yl)amino)phenyl)piperidin-4-yl)(methyl)amino)methyl)phenyl)dihydropyrimidine-2,4(1H,3H)-dione]"
6,< 500 nM,"COc1cc(N2CCC(N(C)Cc3cc(C4CCC(=O)NC4=O)cnc3F)CC2)ccc1Nc1ncc(Cl)c(Nc2ccccc2P(C)(C)=O)n1 (stereo not drawn) [GT-07696, 3-(5-(((1-(4-((5-chloro-4-((2-(dimethylphosphoryl)phenyl)amino)pyrimidin-2-yl)amino)-3-methoxyphenyl)piperidin-4-yl)(methyl)amino)methyl)-6-fluoropyridin-3-yl)piperidine-2,6-dione]"
7,1000 to 1900 nM,"CC(=O)c1c(C)c2cnc(Nc3ccc(N4CCN(Cc5ccc(N6CCC(=O)NC6=O)cn5)CC4)cn3)nc2n(C2CCCC2)c1=O [GT-06578, 1-(6-((4-(6-((6-acetyl-8-cyclopentyl-5-methyl-7-oxo-7,8-dihydropyrido[2,3-d]pyrimidin-2-yl)amino)pyridin-3-yl)piperazin-1-yl)methyl)pyridin-3-yl)dihydropyrimidine-2,4(1H,3H)-dione]"
8,500 to 1000 nM,"CN(C)C(=O)c1cc2cnc(Nc3ccc(N4CCN(Cc5ccc(N6CCC(=O)NC6=O)cc5)CC4)cn3)nc2n1C1CCCC1 [GT-06340, 7-cyclopentyl-2-((5-(4-(4-(2,4-dioxotetrahydropyrimidin-1(2H)-yl)benzyl)piperazin-1-yl)pyridin-2-yl)amino)-N,N-dimethyl-7H-pyrrolo[2,3-d]pyrimidine-6-carboxamide]"
